1 compound from patent publication US20210311020A1, “TREATMENT METHODS AND BIOMARKERS FOR MDM2 INHIBITORS” (ASCENTAGE PHARMA (SUZHOU) CO., LTD., priority 2019, published 2021) can be followed below.

Like-named read-outs stand apart in the source and are kept apart here.

What all share (assay type): cell-based
Test [1] relates to IMR-32 cells (Neuroblastoma). The experiment in a line: In vitro cellular activity in IMR-32. The conditions noted are these: Homo sapiens, IMR-32, Neuroblastoma, P53 WT, ATM p.V2716A, p.K1903fs, ATR WT. How it is done: (§1) Activity of Compound C is tested in various cancer cell lines with indicated TP53, ATM and ATR genetic status. The activity (IC50 in uM) of Compound C in TP53^WT ATM^WT cell lines versus TP53^WTATR^MUT or TP53^WTATM^MUT cell lines was plotted (Figure. 4, MUT indicated mutant; WT indicated Wild-type).

Test [2] has as its system AGS cells (Gastric cancer). Briefly: In vitro cellular activity in AGS. To be noted: Homo sapiens, P53 WT, ATM WT, ATR WT. How it is done: as §1
Test [3] relates to ACHN cells (Kidney cancer). Briefly: In vitro cellular activity in ACHN. The conditions noted are these: Homo sapiens, P53 WT, ATM p.K1903fs, ATR WT. The method, then:
as §1

The test system of test [4] is LoVo cells (Colon cancer). The experiment in a line: In vitro cellular activity in LoVo. The conditions noted are these: Homo sapiens, P53 WT, ATM WT, ATR WT. How it is done:
as §1

Test [5] has as its system SJSA-1 cells (Osteosarcoma). The experiment in a line: In vitro cellular activity in SJSA-1. To be noted: Homo sapiens, SJSA-1, Osteosarcoma, P53 WT, ATM WT, ATR p.L1483F, MDM2 CNV > 3 yes. How it is done:
as §1

Test [6] deals with A549 ATM KO cells and parental cells. Briefly: Flow cytometry analysis of apoptosis (Annexin V-PI). The conditions noted are these: 72 hours after treatment, FIG. 5D. The method, then:
Apoptosis was detected using an Annexin V-PI (propidium iodide) staining kit. Briefly, cells were harvested 72 hours after the treatment and washed with PBS. Cells were then stained with Annexin-V and PI, analyzed by an Attune N×T flow cytometer following manufacturer's instruction. Apoptosis data were obtained by analyzing 20,000 cells from each experimental condition.

The mark [7] stands for this setting: Test#1, read-out: IC50 (uM) Test#1.
Setting [8] is: Test#2, read-out: IC50 (uM) Test#2.

In general, IC50 refers to the midpoint of a concentration-inhibition curve. As for `CCN1[C@@H](C(=O)NC23CCC(C(=O)O)(CC2)CC3)[C@H](c2cccc(Cl)c2F)[C@]2(C(=O)Nc3cc(Cl)ccc32)C12CCCCC2` [Compound C], the IC50 in test [1] (Avg, read-out: IC50 (uM) Avg) was 0.0935 µM; in test [1] (setting [7]), 0.085 µM; in test [1] (setting [8]), 0.102 µM; in test [2] (Avg, read-out: IC50 (uM) Avg), 0.015 µM; in test [2] (setting [7]), 0.01 µM; in test [2] (setting [8]) it was 0.02 µM. The concentration for half-maximal inhibition (IC50) in test [3] (Avg, read-out: IC50 (uM) Avg) came to 0.289 µM; in test [3] (setting [7]) it was 0.239 µM; in test [3] (setting [8]) it was 0.34 µM; in test [4] (Avg, read-out: IC50 (uM) Avg), 0.0475 µM; in test [4] (setting [7]) it was 0.069 µM; in test [4] (setting [8]), 0.026 µM. For the same compound, the IC50 was determined as 0.0495 µM in test [5] (Avg, read-out: IC50 (uM) Avg); 0.058 µM in test [5] (setting [7]); 0.041 µM in test [5] (setting [8]). Besides, the “cell apoptosis in A549 ATM KO cells versus parental cells” value in test [6] was “more cell apoptosis”.
